Patent US4492650A, “A54556 Antibiotics and process for production thereof” (Eli Lilly and Company, priority 1982, dated 1985)
“And” between values parts separate entries of the source, which are not always exact repeats. Identical values can stand only once. Like-named read-outs stand apart in the source and are kept apart here. Bridge positions count the residues as written; N and C are the ends. Square brackets hold non-standard residues; d marks the D form. Peptide text beside a SMILES is read from it. * marks the point of attachment. ξ: configuration not given here. Octatrienoyl(2E,4E,6E) = C/C=C/C=C/C=C/C(=O)*; ξPro(4ξ-Me) = CC1CNC(C(=O)O)C1; NMeA = CN[CH](C)C(=O)O

Experiments:
[1] = test system: Streptococcus sp. (Group D) X66; assay: Disc-plate sensitivity; format: cell-based; details: second test, Table 13
Bacteroides fragilis 111 = assay: MIC, agar-dilution method; format: cell-based
In short: (§1)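 Test organisms are anaerobes; minimum inhibitory concentrations are obtained by the agar-dilution technique.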

[2] = test system: Bacteroides fragilis 1877; assay: MIC, agar-dilution method; format: cell-based
In short: as §1

[3] = test system: Bacteroides fragilis 1936B; assay: MIC, agar-dilution method; format: cell-based
In short: as §1

[4] = test system: Bacteroides melaninogenicus 1856/28; assay: MIC, agar-dilution method; format: cell-based; details: Prevotella intermedia
In short: as §1

[5] = test system: Bacteroides melaninogenicus 2736; assay: MIC, agar-dilution method; format: cell-based
In short: as §1

[6] = test system: Bacteroides thetaiotaomicron 1438; assay: MIC, agar-dilution method; format: cell-based
In short: as §1

[7] = test system: Clostridium difficile 2994; assay: MIC, agar-dilution method; format: cell-based; details: Clostridioides difficile
In short: as §1

[8] = test system: Clostridium septicum 1128; assay: MIC, agar-dilution method; format: cell-based
In short: as §1

[9] = test system: Eubacterium aerofaciens 1235; assay: MIC, agar-dilution method; format: cell-based; details: Collinsella aerofaciens
In short: as §1

[10] = test system: Fusobacterium necrophorum 6054A; assay: MIC, agar-dilution method; format: cell-based
In short: as §1

[11] = test system: Peptostreptococcus intermedius 1264; assay: MIC, agar-dilution method; format: cell-based
In short: as §1

[12] = test system: Propionibacterium acnes 79; assay: MIC, agar-dilution method; format: cell-based; details: Cutibacterium acnes
In short: as §1

[13] = test system: Clostridium perfringens 81; assay: microbe, parasite or virus in culture; format: cell-based
[14] = test system: Peptococcus asaccharolyticus 1302; assay: MIC, agar-dilution method; format: cell-based; details: Peptoniphilus asaccharolyticus
Peptococcus prevoti 1281 = assay: MIC, agar-dilution method; format: cell-based
[15] = test system: Peptostreptococcus anaerobius 1428; assay: MIC, agar-dilution method; format: cell-based
[16] = test system: Bacteroides vulgatis 1211; assay: MIC, agar-dilution method; format: cell-based
[17] = test system: Bacteroides corrodens 1874; assay: MIC, agar-dilution method; format: cell-based; details: Eikenella corrodens
[18] = test system: Fusobacterium symbiosum 1470; assay: MIC, agar-dilution method; format: cell-based
S. pyogenes = assay: In vivo protection against experimental bacterial infection in mice; details: Streptococcus pyogenes, sc, two doses subcutaneously
Method: (§2) When two doses of test compound were administered subcutaneously to mice in illustrative infections, the activity is measured as an ED50 value [effective does in mg./kg. to protect fifty percent of the test animals: See Warren Wick et al., J. Bacteriol. 81, 233-235 (1961)]. The ED50 values for these antibiotic A54556 factors are recorded in Table 15, which follows.

Electrometric titration = format: physicochemical; details: 66 percent dimethylformamide in water
From the text: Antibiotic A54556 factor A is a tan, amorphous solid. […] As determined by electron impact and field desorption mass spectrometry, A54556 factor A has a molecular weight of 718.

anaerobic bacteria = assay: Activity against anaerobic bacteria; format: cell-based; details: agar-dilution method
[19] = test system: experimental bacterial infections; assay: In vivo antimicrobial activity against experimental bacterial infections; details: mice, subcutaneously
Method: as §2

[20] = test system: Staphylococcus aureus 3055; details: benzylpenicillin-susceptible
[21] = test system: Staphylococcus aureus 3074; details: Table 12, benzylpenicillin resistant
[22] = test system: Staphylococcus aureus 3130; details: Table 12, benzylpenicillin resistant, methicillin resistant
[23] = test system: Streptococcus pyogenes (Group A) C203
[24] = test system: Streptococcus pneumoniae Park I
[25] = test system: Staphylococcus aureus V41; details: second test, Table 13, benzylpenicillin resistant
[26] = test system: Staphylococcus epidermidis EPI1; details: second test, Table 13
[27] = test system: Streptococcus sp. (Group D) 9960; assay: Disc-plate sensitivity; details: read-out: Zone diameter
[28] = 30 mcg./disc, second test, Table 13
[29] = 300 mcg./disc, second test, Table 13
[30] = 30 mcg./disc, second test, Table 13, listed as A

Compound: C/C=C/C=C/C=C/C(=O)NC(Cc1ccccc1)C(=O)NC1COC(=O)C2CCCN2C(=O)C(C)NC(=O)C(C)N(C)C(=O)C2CC(C)CN2C1=O (centres unmarked) [Factor A] ({Octatrienoyl(2E,4E,6E)}-FS[ξPro(4ξ-Me)][NMeA]AP; ester 2-C; configuration not given here)
- Zone diameter ([1]; 30 mcg./disc, listed as A): 28 mm.
- Zone diameter ([1]; 300 mcg./disc): 29 mm.
- zone of inhibition at 30 µg/disc ([1]; Streptococcus, read-out: Zone diameter, 30 mcg./disc): 23 mm
- zone of inhibition at 300 µg/disc ([1]; Streptococcus, read-out: Zone diameter, 300 mcg./disc): 33 mm
- MIC (Bacteroides fragilis 111): > 128 µg/mL
- MIC [2]: > 128 µg/mL
- MIC [3]: > 128 µg/mL
- MIC [4]: > 128 µg/mL
- MIC [5]: > 128 µg/mL
- MIC [6]: > 128 µg/mL
- MIC [7]: > 128 µg/mL
- MIC [8]: > 128 µg/mL
- MIC [9]: > 128 µg/mL
- MIC [10]: > 128 µg/mL
- MIC [11]: > 128 µg/mL
- MIC [12]: > 128 µg/mL
- MIC [13]: > 128 µg/mL
- MIC [14]: > 128 µg/mL
- MIC (Peptococcus prevoti 1281): > 128 µg/mL
- MIC [15]: > 128 µg/mL
- MIC [16]: > 128 µg/mL
- MIC [17]: > 128 µg/mL
- MIC [18]: > 128 µg/mL
- ED50 (S. pyogenes): > 70 mg/kg
- titratable groups (Electrometric titration): no titratable groups
- activity against a number of anaerobic bacteria (anaerobic bacteria): active
- in vivo antimicrobial activity against experimental bacterial infections [19]: have shown in vivo antimicrobial activity
- Zone diameter ([20]; 30 mcg./disc, Table 12): 19.2 mm.
- Zone diameter [20, 28]: 19 mm. and 21 mm.
- Zone diameter ([20]; 300 mcg./disc, Table 12): 24.3 mm.
- Zone diameter [20, 29]: 24 mm.
- Zone diameter ([20]; 300 mcg./disc, second test, Table 13, listed as A): 28 mm.
- Zone diameter ([21]; 30 mcg./disc): 18.3 mm.
- Zone diameter ([21]; 300 mcg./disc): 20.9 mm.
- Zone diameter ([22]; 30 mcg./disc): 21.7 mm.
- Zone diameter ([22]; 300 mcg./disc): 25.5 mm.
- Zone diameter ([23]; 30 mcg./disc, Table 12): 24.0 mm.
- Zone diameter [23, 28]: 25 mm.
- Zone diameter [23, 30]: 20 mm.
- Zone diameter ([23]; 300 mcg./disc, Table 12): 30.0 mm.
- Zone diameter [23, 29]: 30 mm. and 32 mm.
- Zone diameter ([24]; 30 mcg./disc, Table 12): 26.0 mm.
- Zone diameter [24, 30]: 18 mm. and 22 mm.
- Zone diameter ([24]; 300 mcg./disc, Table 12): 34.0 mm.
- Zone diameter [24, 29]: 33 mm. and 35 mm.
- Zone diameter ([25]; 30 mcg./disc): 20 mm. and 22 mm.
- Zone diameter ([25]; 300 mcg./disc): 27 mm. and 33 mm.
- Zone diameter ([26]; 30 mcg./disc): 20 mm.
- Zone diameter ([26]; 300 mcg./disc): 22 mm. and 28 mm.
- solubility in organic solvents (Solubility; lower alcohols (methyl, ethyl, isopropyl, n-propyl, n-butyl), acetone, ethyl acetate, tetrahydrofuran, pyridine, dimethyl sulfoxide): soluble
- solubility in water (Solubility; water): insoluble
- zone of inhibition at 30 µg/disc [27]: 22.4 mm
- zone of inhibition at 300 µg/disc [27]: 28 mm
